Laboratory results taken from patent US9241976B2, “Use of HDL-related molecules to treat and prevent proinflammatory conditions” (THE REGENTS OF THE UNIVERSITY OF CALIFORNIA, priority 2011, dated 2016).

What was measured:
[1] = tested on: IL-6; experiment: Plasma IL-6 ELISA; assay type: in vivo, mouse; settings: lung tumor mice; 10 mg/kg/d subcutaneously for 3 weeks; vs control group
Method: Interleukin (IL)-6 concentrations were measured in plasma by a competition ELISA according to the manufacture's protocol (Invitrogen).

[2] = tested on: CT26 cells; experiment: CT26 cell viability, MTS assay; settings: Example 6; MTS assay, within 48 hours of treatment
Method: (§1) CT26 cell line derived from N-nitroso-N-methyl urethane-induced mouse colon carcinoma of BALB/c origin was purchased from the American Type Culture Collection (ATCC). CT26 cells (2,000 cells per well) were first cultured in complete medium in 96-well culture plates, and 24 hours later the medium was replaced with serum free medium. Following an overnight incubation, the cells were either treated with vehicle (control), or treated with 10 μg/mL of either bHDL. The bHDL were dissolved in H2O. Cells were incubated for an additional 48 hours and assayed for viability using the MTS assays kit (Promega) according to the manufacturer's protocol.
(§2) CT26 cell line derived from N-nitroso-N-methyl urethane-induced mouse colon carcinoma of BALB/c origin was purchased from the American Type Culture Collection. CT26 cells (2,000 cells per well) were first cultured in complete medium in 96-well culture plates, and 24 hours later the medium was replaced with serum-free medium. Following an overnight incubation, the cells were either treated with vehicle (control) or treated with 10 mg/mL of either L-4F or G* peptide. The peptides were dissolved in H2O. Cells were incubated for an additional 48 hours and assayed for viability using the MTS assay kit (Promega) according to the manufacturer's protocol.

[3] = tested on: HIF-1α; experiment: ID8 flank tumor model, HIF-1α immunohistochemistry; assay type: in vivo, mouse; settings: C57BL/6J mice, ID8 tumors; 10 mg/kg s.c. daily for 3 weeks; vs sc-4F
Method: Nine-week-old C57BL/6J female mice were given a 0.5-ml subcutaneous injection of 5×10^6 ID8 cells prepared as a single cell suspension in PBS mixed with an equal volume of cold Matrigel (BD Biosciences, San Jose, Calif.). After 2 weeks, mice started to receive scrambled 4F peptide (sc-4F) or L-4F (10 mg/kg) by subcutaneous injection at a site distant from the site where the ID8 cells were injected daily for 3 weeks. After 3 weeks, the mice were sacrificed for tumor collection and further analyses.
Frozen tumor tissues were sectioned at a thickness of 5 μm and fixed with cold acetone for 10 min at −20° C. The sections were blocked with 10% normal goat serum and 4% bovine serum albumin prepared in PBS for 3 h and immediately incubated with rabbit anti-mouse polyclonal HIF-1α antibody (1:200) (Abcam Inc.) or rat anti-mouse monoclonal CD31 antibody (1:25) (Abcam Inc.) overnight at 4° C. The sections were then incubated with corresponding biotinylated secondary antibodies (Vector Laboratories) for 30 min at room temperature followed by incubation with Vectastain ABC Elite reagents (Vector Laboratories) to visualize the staining. Finally, sections were lightly counterstained with hematoxylin, dehydrated, and coverslipped with Vecta-Mount solution (Vector Laboratories).

[4] = tested on: cis-platinum-resistant human ovarian cancer cells; settings: reference (17); cited from earlier work
[5] = tested on: CT26 cells; experiment: CT26 proliferation assay (BrdU incorporation); assay type: cell-based, mouse; settings: Example 5; 10 mg/mL, 48 hours
Method: The bHDL were dissolved in H2O.
The peptides were dissolved in H2O.

[6] = tested on: HIF-1α; experiment: HIF-1α protein expression in human ovarian cancer cell lines, Western blot; assay type: cell-based
Method: OV2008 cells were cultured in RPMI 1640 media with 10% fetal bovine serum, penicillin (100 U/ml), streptomycin (100 μg/ml), 1× minimal essential medium nonessential amino acid solution (Invitrogen, Carlsbad, Calif.), and insulin (0.25 U/ml) (Invitrogen). CAOV-3 cells were cultured in complete media consisting of Dulbecco's modified Eagle's medium with high glucose and L-glutamine (2 mM), 10% fetal bovine serum, penicillin (100 U/ml), streptomycin (100 μg/ml), and insulin (0.02 U/ml). To create hypoxic conditions, cells were transferred to a hypoxic chamber (model 3130; Thermo Fisher Scientific, Waltham, Mass.), where they were maintained at 37° C. in an atmosphere containing 5% CO2, 1% O2, and 94% N2. L-4F (the peptide Ac-D-W-F-K-A-F-Y-D-K-V-A-E-K-F-K-E-A-F-NH2 (SEQ ID NO: 12) synthesized from all L amino acids) was dissolved in water at 1 mg/ml (freshly prepared every time) and used between 1 and 10 μg/ml. L-5F was synthesized by Peptisyntha Inc. (Torrance, Calif.), dissolved in ABCT buffer (50 mM ammonium bicarbonate, pH 7.0, containing 0.1 mg/ml Tween 20) at 1 mg/ml, and diluted to the required concentrations before use. Cobalt chloride (CoCl2), insulin, cycloheximide (CHX), and N-(benzyloxycarbonyl)leucinylleucinylleucinal-Z-Leu-Leu-Leu-al (MG-132) were purchased from Sigma-Aldrich (St. Louis, Mo.). LPA (Avanti Polar Lipids, Alabaster, Ala.) in chloroform was dried as recommended by the manufacturer, dissolved in ethanol at a concentration of 20 mM as a stock solution, and diluted to the required concentrations in the corresponding cell culture media before use.
Western blot analyses were performed as described previously (Gao et al., 2011). In brief, cell lysates were collected in a lysis buffer containing 0.1 MNaCl, 5 mM EDTA, 50 μM sodium orthovanadate, 1% Triton X-100, and protease inhibitor tablet (Roche Diagnostics, Indianapolis, Ind.) in 50 mM Tris buffer, pH 7.5, loaded onto 4 to 12% Bis-Tris gel (Invitrogen), transferred to polyvinylidene difluoride membrane, and incubated with the appropriate antibodies. Anti-pThr^202/Tyr^204-Erk, anti-Erk, anti-pThr^389-p70 S6 kinase, anti-p70 S6 kinase, anti-pSer^473-Akt, and anti-Akt antibodies were purchased from Cell Signaling Technology (Danvers, Mass.); mouse anti-human HIF-1α antibody was purchased from BD Pharmingen (San Diego, Calif.); rabbit anti-mouse HIF-1α antibody was purchased from Abcam Inc. (Cambridge, Mass.); and anti-GAPDH antibody was purchased from Santa Cruz Biotechnology Inc. (Santa Cruz, Calif.).

[7] = tested on: CT26 cells; settings: BALB/c, mouse, 48 hours
Method: as §1, §2

[8] = tested on: HIF-1α; experiment: Immunofluorescence staining of nuclear HIF-1α in OV2008 cells; assay type: cell-based, human
Method: Immunofluorescence staining was performed as described previously (Lee et al., 2006). In brief, OV2008 cells were plated onto a glass slip (Thermo Fisher Scientific) in 24-well plates at 4×10^4 cells per well and grown in complete medium overnight. After starvation overnight, cells were subjected to L-4F treatment in the presence or absence of stimulators. Then, cells were fixed in 4% neutral buffered formaldehyde for 25 min at room temperature, permeabilized with 0.5% Triton X-100 in PBS for 10 min, and blocked with 10% normal goat serum, 1% bovine serum albumin, and 0.3 M glycine prepared in PBS for 1 h. Cells were incubated with mouse anti-HIF-1α (1:200) overnight at 4° C. and incubated with Alexa Fluor 568 goat anti-mouse IgG (Invitrogen) for 1 h. Finally, cells were covered with VectaMount solution containing DAPI (Vector Laboratories, Burlingame, Calif.), and images were captured with a fluorescence microscope (Olympus IX70).

[9] = tested on: HIF-1α; experiment: Hypoxia response element (HRE) luciferase reporter assay in OV2008 cells; assay type: cell-based, human
Method: In brief, OV2008 cells were plated at 2×10^5 cells per well in a six-well plate and grown in complete media overnight. Then, pGL3-Epo-hypoxia response element (HRE)-Luc plasmid was transfected into cells by using Lipofectamine 2000 (Invitrogen). After 24 h, cells were starved overnight and subjected to L-4F treatment in the presence or absence of stimulators. A reporter assay system (Promega, Madison, Wis.) was used for the measurement of luciferase activity.

[10] = OV2008 cells stimulated first with CoCl2 or insulin, 10 μg/ml

Ac-DWFKAFYDKVAEKFKEAF-NH2 [L-4F, Ac-D-W-F-K-A-F-Y-D-K-V-A-E-K-F-K-E-A-F-NH2]
IL-6 levels in plasma [1]: significantly decreased | CT26 cell viability vs vehicle-treated controls [2]: reduced cell viability | HIF-1α expression in tumor tissues [3]: decreased | viability and proliferation [4]: reduced | proliferation of CT26 cells, BrdUrd incorporation [5]: significantly inhibited | CoCl2- and insulin-induced HIF-1α expression ([6]; CAOV-3 cells): dose-dependently inhibited | HIF-1α expression, post-treatment ([6]; OV2008 cells stimulated first with CoCl2 or insulin 3 h or 24 h, 10 μg/ml): significantly decreased | hypoxia-induced (low oxygen 1% O2, CoCl2) HIF-1α protein expression ([6]; OV2008 cells, pretreatment): dose-dependently suppressed | CoCl2- and insulin-induced HIF-1α expression ([6]; SKOV3 cells): dose-dependently inhibited | Cell viability reduced by, compared with control ([7]; 10 μg/mL): more than 20% | Cell viability reduced, compared with control ([7]; 10 mg/mL): more than 25% | nuclear expression of HIF-1α, post-treatment [8, 10]: decreased nuclear expression | CoCl2- and insulin-induced accumulation of HIF-1α in nuclei ([8]; OV2008 cells, pretreatment): dramatically reversed | transcription of downstream HIF-1α target genes (HRE reporter), post-treatment [9, 10]: inhibition of the transcription | CoCl2- and insulin-mediated induction of HRE luciferase activity ([9]; OV2008 cells, 10 μg/ml pretreatment 1 h): significantly inhibited
